Experimental findings from ChEMBL document CHEMBL1201862, “PubChem BioAssay data set” (2004) are described below.

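Dose response: 5 concentrations. Exposure: 48 h. Format: 96-well plates. Endpoint: linear interpolation; highest concentration if not reached. GI50: concentration for 50% inhibition of growth.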 Active and inactive are the calls of the source. No stated cut-off is given here; in the data, active = GI50 up to about 1.1 µM and inactive = higher. Bounds are passed on as bounds.

Test systems include OVCAR-3; TK-10; SK-OV-3; SK-MEL-28; K562; HCT-15; T47D; RXF 393; HCT-116; OVCAR-8; MDA-MB-231; HT-29; OVCAR-4; OVCAR-5; Hs-578T; UACC-257; SR; A498; Malme-3M; HL-60.
Experiment in all cases: growth of human tumour cells (NCI), 48 h

Turning to `CCOC(=O)/C=C(\C(=O)OCC)n1cc(C)c(=O)n(Cc2cn(COCCOC(C)=O)nn2)c1=O`, the GI50 in the assay on OVCAR-3 is 13.2 µM (inactive); in the assay on TK-10, 4.97 µM (inactive); in the assay on SK-OV-3 it was 71.8 µM (inactive); with SK-MEL-28, 10.5 µM (inactive); in the assay on K562 it was 5.69 µM (inactive); in the assay on HCT-15, 6.93 µM. Also, the GI50 in the assay with T47D is 21.3 µM (inactive); in the assay on RXF 393, 11.6 µM (inactive); with HCT-116, 20.5 µM (inactive); in the assay with OVCAR-8, 8.43 µM (inactive); in the assay with MDA-MB-231, 20.1 µM (inactive); in the assay on HT-29 it was 7.33 µM (inactive). The GI50 is 23.3 µM (inactive) in the assay with OVCAR-4; 14.5 µM (inactive) in the assay on OVCAR-5; 17.1 µM (inactive) in the assay with Hs-578T; 17.4 µM (inactive) in the assay on UACC-257; 1.44 µM (inactive) in the assay on SR.
For `OCC1OC(N2CCN(C3OC(CO)C(O)C(O)C3O)CC2)C(O)C(O)C1O` (centres undefined), the GI50 is > 100 µM (inactive) with OVCAR-3; > 100 µM (inactive) in the assay with TK-10; > 100 µM (inactive) with SK-OV-3; > 100 µM (inactive) in the assay on SK-MEL-28; > 100 µM (inactive) with K562; above 100 µM with HCT-15. The GI50 in the assay on T47D, in the assay with RXF 393, in the assay on A498, with HCT-116, in the assay on OVCAR-8 and in the assay with MDA-MB-231 was > 100 µM (inactive) throughout. Further, the GI50 in the assay on HT-29, in the assay on OVCAR-4, with OVCAR-5, in the assay with Hs-578T, with UACC-257 and in the assay on SR was > 100 µM (inactive) each time. Also, in the assay with Malme-3M, the GI50 was > 100 µM (inactive).
In the case of `N#CCCSC(=S)C1CCCC1=N` (centres undefined), the GI50 in the assay with OVCAR-3, in the assay on TK-10, with SK-OV-3, with HL-60, with SK-MEL-28 and in the assay with K562 was > 100 µM (inactive) throughout. The GI50 is above 100 µM in the assay with HCT-15; 36 µM (inactive) with T47D; 42.4 µM (inactive) with RXF 393; > 100 µM (inactive) in the assay with A498; > 100 µM (inactive) with HCT-116; > 100 µM (inactive) in the assay with OVCAR-8. Also, the GI50 in the assay on MDA-MB-231, with HT-29, in the assay with OVCAR-4, with OVCAR-5, in the assay on Hs-578T and in the assay with UACC-257 was > 100 µM (inactive) in each case. In addition, in the assay with Malme-3M, the GI50 was > 100 µM (inactive).
On to `CC1(C)N=C(/C(C#N)=[N+](/[O-])C(=O)c2ccccc2)C(C)(C)N1O`, for which the GI50 in the assay on OVCAR-3, in the assay on TK-10, in the assay with SK-OV-3, in the assay with HL-60, with SK-MEL-28 and in the assay with K562 was > 100 µM (inactive) throughout. The GI50 with HCT-15 was above 100 µM; in the assay with T47D, > 100 µM (inactive); in the assay on RXF 393, > 100 µM (inactive); with HCT-116, > 100 µM (inactive); in the assay with OVCAR-8, > 100 µM (inactive); in the assay with MDA-MB-231, > 100 µM (inactive). In addition, the GI50 in the assay with HT-29, in the assay on OVCAR-4, in the assay on OVCAR-5, in the assay with Hs-578T, in the assay on UACC-257 and in the assay with SR was > 100 µM (inactive) in each case. Moreover, the GI50 with Malme-3M is > 100 µM (inactive).
In the case of `CC(C#N)NCc1ccc(C(C)NC(C)C#N)cc1` (centres undefined), the GI50 in the assay on OVCAR-3, in the assay with TK-10, in the assay with SK-OV-3, with HL-60, in the assay with SK-MEL-28 and with K562 was > 100 µM (inactive) throughout. Besides, the GI50 in the assay with HCT-15 is above 100 µM; in the assay on T47D, > 100 µM (inactive); in the assay on RXF 393, > 100 µM (inactive); with A498, > 100 µM (inactive); in the assay with HCT-116, > 100 µM (inactive); in the assay on OVCAR-8 it was > 100 µM (inactive). In addition, the GI50 in the assay on MDA-MB-231, in the assay with HT-29, in the assay with OVCAR-4, in the assay on OVCAR-5, in the assay with Hs-578T and with UACC-257 was > 100 µM (inactive) throughout. Besides, in the assay on Malme-3M, the GI50 is 96.6 µM (inactive).
For the molecule `CCN(CC)c1ccc2nc3ccc(/N=N/c4c(O)ccc5ccccc45)cc3[n+](-c3ccccc3)c2c1`, the GI50 in the assay on OVCAR-3 is > 100 µM (inactive); with TK-10, > 100 µM (inactive); in the assay with SK-OV-3, > 100 µM (inactive); with HL-60, 23.9 µM (inactive); in the assay on SK-MEL-28 it was > 100 µM (inactive); with K562, > 100 µM (inactive). The GI50 with HCT-15 is above 100 µM; in the assay with T47D it was > 100 µM (inactive); in the assay on RXF 393, > 100 µM (inactive); in the assay with HCT-116 it was > 100 µM (inactive); with OVCAR-8 it was > 100 µM (inactive); in the assay on MDA-MB-231 it was > 100 µM (inactive). The GI50 was > 100 µM (inactive) in the assay with HT-29; > 100 µM (inactive) in the assay on OVCAR-4; > 100 µM (inactive) with OVCAR-5; > 100 µM (inactive) in the assay on Hs-578T; > 100 µM (inactive) in the assay with UACC-257; 1.47 µM (inactive) in the assay on SR. Further, the GI50 in the assay with Malme-3M was > 100 µM (inactive).
Consider `NC(=O)CSc1nc2ccccc2c(=O)n1N`, for which the GI50 was > 100 µM (inactive) in the assay with OVCAR-3; > 100 µM (inactive) in the assay with TK-10; > 100 µM (inactive) in the assay with SK-MEL-28; > 100 µM (inactive) in the assay on K562; above 100 µM with HCT-15; > 100 µM (inactive) with T47D. In addition, the GI50 with RXF 393, with A498, in the assay with HCT-116, with OVCAR-8, in the assay on MDA-MB-231 and in the assay with HT-29 was > 100 µM (inactive) throughout. Moreover, the GI50 in the assay on OVCAR-4, in the assay on OVCAR-5, in the assay with Hs-578T, in the assay with UACC-257, in the assay with SR and with Malme-3M was > 100 µM (inactive) each time.
For the molecule `C[N+]1(CCN[N+]2(C)CCCCC2)CCc2ccccc2C1` (centres undefined), the GI50 with OVCAR-3 was > 100 µM (inactive); in the assay on TK-10 it was > 100 µM (inactive); in the assay with SK-OV-3, > 100 µM (inactive); in the assay with SK-MEL-28, > 100 µM (inactive); in the assay on K562, > 100 µM (inactive); in the assay on HCT-15, above 100 µM. In addition, the GI50 in the assay on T47D, in the assay with RXF 393, in the assay on A498, in the assay on HCT-116, in the assay on OVCAR-8 and in the assay with MDA-MB-231 was > 100 µM (inactive) each time. For the same molecule, the GI50 in the assay with HT-29, with OVCAR-4, with OVCAR-5, with Hs-578T, in the assay with UACC-257 and in the assay with SR was > 100 µM (inactive) in each case. In addition, the GI50 in the assay on Malme-3M was > 100 µM (inactive).
